Test results published in article PMC7696167 (Pharmaceutics, 2020).

Legend:
CYP3A4 = tested on: CYP3A4; design: method as in PMID 18048486; details: cited from earlier work
CYP2B6 = tested on: CYP2B6; design: method as in PMID 18048486; details: cited from earlier work
[1] = tested on: P-glycoprotein 1 (P-gp, MDR1 or ABCB1) efflux pump; design: method as in PMID 20699410; details: cited from earlier work
[2] = Population pharmacokinetic model of oral roscovitine and metabolite M3, first dose, ROSCO-CF trial
[3] = population estimate, adult CF patients, oral
[4] = population estimate, covariate effect

Row | Structure (SMILES) | substrate for CYP3A4 (CYP3A4) | substrate for CYP2B6 (CYP2B6) | substrate for P-glycoprotein 1 efflux pump [1] | rate of absorption in patients treated with PPIs ([2]; oral roscovitine, adult CF patients) | CV1: coefficient of variation of first inverse Gaussian absorption function ([2]; population estimate) | CV2: coefficient of variation of second inverse Gaussian absorption function ([2]; population estimate) | k12: distribution rate to the peripheral compartment ([2]; population estimate) [h⁻¹] | k21: distribution rate from the peripheral compartment ([2]; population estimate) [h⁻¹] | kmet: systemic conversion rate of roscovitine in its carboxylate metabolite M3 ([2]; population estimate) [h⁻¹] | T1max: time at which the first inverse Gaussian absorption function reaches its maximum [2, 3] [h] | dT2max (T2max = T1max + dT2max), inverse Gaussian absorption parameter [2, 3] [h] | π1: weight associated with the first input fraction [2, 3] | D50: oral dose of roscovitine for which Fdose is 50% ([2]; population estimate, adult CF patients, oral 200-800 mg) [µmol] | β (PPI = 1) on T1max: coefficient for modification of T1max in patients taking PPI [2, 4] | β height (cm) on V: coefficient for the effect of height on V/F [2, 4] | V/F: apparent volume of the central compartment after oral administration ([2]; population estimate, single parameter common to roscovitine and M3, reference height 170 cm) [L] | ke: elimination rate of the metabolite ([2]; population estimate) [h⁻¹]
1 | CC[C@H](CO)Nc1nc(NCc2ccccc2)c2ncn(C(C)C)c2n1 [roscovitine, (R)-roscovitine] | substrate | substrate | substrate | slower rate of absorption | 0.542 | 0.354 | 1.82 | 0.768 | 2.07 | 0.676 | 1.04 | 0.285 | 1190 | 0.680 | 6.47 | 62.2 | 
2 | CC[C@@H](Nc1nc(NCc2ccccc2)c2ncn(C(C)C)c2n1)C(=O)O [M3] |  |  |  |  |  |  |  |  |  |  |  |  |  |  |  |  | 2.58
